Measured values reported in ChEMBL document CHEMBL4229482, “Design, synthesis and biological evaluation of novel spiro-pentacylamides as acetyl-CoA carboxylase inhibitors” (Bioorg Med Chem, 2018).

Columns and labels:
[1] = test system: HCT-116; assay: cells; settings: Homo sapiens, HCT-116, 48 h
[2] = target: Acetyl-CoA carboxylase 1 (Homo sapiens, UniProt Q13085); assay: Inhibition of C-terminal His-tagged recombinant human ACC1 (1 to 2383 residues) expressed in Baculovirus infected Sf9 insect cells using acetyl CoA as substrate preincubated for 15 mins followed by substrate addition and measured after 60 mins by ADP-Glo assay
[3] = target: Acetyl-CoA carboxylase 2 (Homo sapiens, UniProt O00763); assay: Inhibition of C-terminal His-tagged full length human ACC2 expressed in Baculovirus infected Sf9 insect cells using acetyl CoA as substrate preincubated for 15 mins followed by substrate addition and measured after 60 mins by ADP-Glo assay
[4] = test system: NCI-H1975; assay: Antiproliferative activity against human NCI-H1975 cells after 48 hrs by MTT assay; assay type: functional, cell-based; settings: NCI-H1975, 48 h
[5] = test system: Caco-2; assay: Antiproliferative activity against human Caco2 cells after 48 hrs by MTT assay; assay type: functional, cell-based; settings: Caco-2, 48 h
[6] = test system: A549; assay: cells; settings: Homo sapiens, A549, 48 h
[7] = test system: SW-620; assay: cells; settings: Homo sapiens, SW-620, 48 h
Description: Antiproliferative activity against human SW620 cells after 48 hrs by MTT assay

Acetyl-CoA carboxylase 2, sequence (O00763 whole entry): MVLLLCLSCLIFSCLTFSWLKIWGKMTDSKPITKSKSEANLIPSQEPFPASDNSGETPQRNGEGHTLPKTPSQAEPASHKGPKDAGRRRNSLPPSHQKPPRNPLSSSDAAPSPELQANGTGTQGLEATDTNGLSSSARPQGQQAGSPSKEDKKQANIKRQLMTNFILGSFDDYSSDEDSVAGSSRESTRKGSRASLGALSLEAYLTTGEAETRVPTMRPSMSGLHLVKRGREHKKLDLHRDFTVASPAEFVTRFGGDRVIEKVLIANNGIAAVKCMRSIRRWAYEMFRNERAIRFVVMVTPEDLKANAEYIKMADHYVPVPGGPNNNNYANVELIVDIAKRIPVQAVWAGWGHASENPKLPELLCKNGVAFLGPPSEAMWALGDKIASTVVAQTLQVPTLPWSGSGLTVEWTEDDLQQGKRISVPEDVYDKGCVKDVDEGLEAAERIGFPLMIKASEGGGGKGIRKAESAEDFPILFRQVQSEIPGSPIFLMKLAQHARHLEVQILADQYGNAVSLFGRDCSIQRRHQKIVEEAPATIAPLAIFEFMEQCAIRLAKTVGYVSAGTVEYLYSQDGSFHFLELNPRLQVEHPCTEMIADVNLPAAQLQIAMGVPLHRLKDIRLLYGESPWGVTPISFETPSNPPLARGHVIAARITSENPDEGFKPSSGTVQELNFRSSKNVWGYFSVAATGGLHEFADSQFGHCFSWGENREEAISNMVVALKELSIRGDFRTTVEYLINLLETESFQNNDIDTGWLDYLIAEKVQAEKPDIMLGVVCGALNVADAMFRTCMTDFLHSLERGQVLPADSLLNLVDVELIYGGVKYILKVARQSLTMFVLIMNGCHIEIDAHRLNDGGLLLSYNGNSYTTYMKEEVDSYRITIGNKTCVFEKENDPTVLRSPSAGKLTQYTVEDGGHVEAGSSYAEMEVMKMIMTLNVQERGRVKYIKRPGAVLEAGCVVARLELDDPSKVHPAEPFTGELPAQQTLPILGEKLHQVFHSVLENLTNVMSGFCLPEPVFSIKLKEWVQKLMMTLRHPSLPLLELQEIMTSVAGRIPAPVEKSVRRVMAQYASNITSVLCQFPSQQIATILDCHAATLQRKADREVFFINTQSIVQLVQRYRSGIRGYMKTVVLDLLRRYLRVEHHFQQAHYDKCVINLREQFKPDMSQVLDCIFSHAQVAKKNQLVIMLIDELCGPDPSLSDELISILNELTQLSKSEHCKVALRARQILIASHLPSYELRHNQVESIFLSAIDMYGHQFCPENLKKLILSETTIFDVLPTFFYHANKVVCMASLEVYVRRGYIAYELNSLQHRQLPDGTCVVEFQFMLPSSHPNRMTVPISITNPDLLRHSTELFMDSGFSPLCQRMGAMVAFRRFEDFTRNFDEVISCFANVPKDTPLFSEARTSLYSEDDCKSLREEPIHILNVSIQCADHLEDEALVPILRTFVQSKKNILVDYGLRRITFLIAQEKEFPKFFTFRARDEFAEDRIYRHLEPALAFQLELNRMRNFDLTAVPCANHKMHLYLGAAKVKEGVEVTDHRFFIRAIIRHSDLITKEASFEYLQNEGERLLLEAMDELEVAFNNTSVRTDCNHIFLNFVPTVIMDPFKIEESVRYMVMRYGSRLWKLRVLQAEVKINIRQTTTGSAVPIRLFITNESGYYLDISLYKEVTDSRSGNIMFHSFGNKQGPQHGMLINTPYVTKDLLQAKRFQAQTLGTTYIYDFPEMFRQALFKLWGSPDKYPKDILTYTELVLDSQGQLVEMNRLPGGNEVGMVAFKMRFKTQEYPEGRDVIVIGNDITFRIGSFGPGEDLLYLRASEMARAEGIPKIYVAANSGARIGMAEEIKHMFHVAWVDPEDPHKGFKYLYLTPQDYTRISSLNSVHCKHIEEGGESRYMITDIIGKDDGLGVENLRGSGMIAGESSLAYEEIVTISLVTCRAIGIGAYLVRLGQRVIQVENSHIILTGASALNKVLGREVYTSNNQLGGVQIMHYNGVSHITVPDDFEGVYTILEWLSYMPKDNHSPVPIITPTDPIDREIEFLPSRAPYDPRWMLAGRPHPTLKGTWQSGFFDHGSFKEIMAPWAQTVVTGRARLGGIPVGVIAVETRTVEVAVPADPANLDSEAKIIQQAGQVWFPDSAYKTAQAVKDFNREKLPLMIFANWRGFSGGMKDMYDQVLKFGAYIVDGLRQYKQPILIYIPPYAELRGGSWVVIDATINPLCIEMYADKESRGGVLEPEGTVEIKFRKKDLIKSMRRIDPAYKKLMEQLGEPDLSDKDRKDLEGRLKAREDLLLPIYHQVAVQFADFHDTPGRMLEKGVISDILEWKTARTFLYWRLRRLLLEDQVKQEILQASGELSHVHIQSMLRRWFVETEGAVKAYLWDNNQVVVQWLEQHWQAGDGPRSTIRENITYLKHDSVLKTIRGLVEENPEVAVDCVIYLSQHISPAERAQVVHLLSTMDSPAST

Structure (SMILES)	IC50 [1] [µM]	IC50 [2] [µM]	IC50 [3] [µM]	IC50 [4] [µM]	IC50 [5] [µM]	IC50 [6] [µM]	IC50 [7] [µM]
O=C(c1ccc2[nH]c3c(c2c1)CCC3)N1CCC2(CC1)CC(=O)N(c1ccc(C(F)(F)F)cc1)C2	–	4.27	3.48	–	–	–	–
Cc1cc(C(=O)N2CCC3(CC2)CC(=O)N(c2ccc(C#N)cc2F)C3)cc2cn[nH]c12	–	3.56	> 5	–	–	–	–
CCCc1nc2cc(C(=O)N3CCC4(CC3)CC(=O)N(c3ccc(C(F)(F)F)cc3)C4)cc(C)c2[nH]1	4.21	1.69	1.94	0.27	> 10	> 10	1.82
O=C(c1ccc2ncccc2c1)N1CCC2(CC1)CC(=O)N(c1ccc(C(F)(F)F)cc1)C2	–	> 5	> 5	–	–	–	–
Cc1cc(C(=O)N2CCC3(CC2)CC(=O)c2nn(C(C)(C)C)cc2O3)cc2cn[nH]c12	2.43	0.032	0.008	0.21	6.51	0.74	3.19
O=C(c1ccc2[nH]c(-c3ccco3)nc2c1)N1CCC2(CC1)CC(=O)N(c1ccc(C(F)(F)F)cc1)C2	> 10	1.05	0.976	0.72	–	7.96	3.26
O=C(c1ccc2cn[nH]c2c1)N1CCC2(CC1)CC(=O)N(c1ccc(C(F)(F)F)cc1)C2	–	4.73	2.74	–	–	–	–
CC(C)c1ccc(-c2nc3cc(C(=O)N4CCC5(CC4)CC(=O)N(c4ccc(C(F)(F)F)cc4)C5)ccc3[nH]2)cc1	6.21	1.15	0.764	> 10	> 10	1.03	> 10
Cc1cc(C(=O)N2CCC3(CC2)CC(=O)N(c2ccc(C#N)cc2)C3)cc2cn[nH]c12	–	3.99	> 5	–	–	–	–
O=C(c1ccc2cccnc2c1)N1CCC2(CC1)CC(=O)N(c1ccc(C(F)(F)F)cc1)C2	–	4.92	> 5	–	–	–	–

Now from value to compound:

IC50 [1] [µM]	IC50 [2] [µM]	IC50 [3] [µM]	IC50 [4] [µM]	IC50 [5] [µM]	IC50 [6] [µM]	IC50 [7] [µM]	Structure (SMILES)
7.64	2.65	1.24	0.39	> 10	3.49	7.24	O=C(c1ccc2[nH]c(-c3ccncc3)nc2c1)N1CCC2(CC1)CC(=O)N(c1ccc(C(F)(F)F)cc1)C2
–	2.79	4.65	–	–	–	–	Cc1cc(C(=O)N2CCC3(CC2)CC(=O)N(c2ccc(C(=O)O)cc2)C3)cc2cn[nH]c12
1.22	0.527	0.397	0.38	5.42	1.92	2.05	O=C(c1ccc2[nH]c(-c3ccccc3)nc2c1)N1CCC2(CC1)CC(=O)N(c1ccc(C(F)(F)F)cc1)C2
–	> 5	> 5	–	–	–	–	O=C(c1ccc2[nH]ccc2c1)N1CCC2(CC1)CC(=O)N(c1ccc(C(F)(F)F)cc1)C2
> 10	2.24	1.88	5.64	> 10	2.11	> 10	COC(=O)c1ccc(N2CC3(CCN(C(=O)c4cc(C)c5[nH]ncc5c4)CC3)CC2=O)cc1
–	> 5	> 5	–	–	–	–	O=C(c1cnc2ccccc2c1)N1CCC2(CC1)CC(=O)N(c1ccc(C(F)(F)F)cc1)C2
–	2.22	3.02	–	–	–	–	Cc1nc2cc(C(=O)N3CCC4(CC3)CC(=O)N(c3ccc(C(F)(F)F)cc3)C4)ccc2[nH]1
–	2.01	3.77	–	–	–	–	Cc1cc(N2CC3(CCN(C(=O)c4cc(C)c5[nH]ncc5c4)CC3)CC2=O)ccc1C#N
8.67	1.2	0.944	> 10	> 10	> 10	> 10	Cc1cc(C(=O)N2CCC3(CC2)CC(=O)N(c2ccc(C(F)(F)F)cc2)C3)cc2cn[nH]c12
–	4.95	> 5	–	–	–	–	O=C(c1ccc2cc[nH]c2c1)N1CCC2(CC1)CC(=O)N(c1ccc(C(F)(F)F)cc1)C2
8.67	1.95	1.11	–	–	> 10	4.74	O=C(c1ccc2[nH]c3c(c2c1)CCCC3)N1CCC2(CC1)CC(=O)N(c1ccc(C(F)(F)F)cc1)C2
